Data as given in patent publication US20260363251A1 (priority 2022, published 2026).
Where two headings read alike, the source gives them in different places. Numbered stars: 1 amine (or outer) side, 2 acyl side, 3 side chain; on linkers, the order of the positions; unused ones are H or OH. Bridge positions count the residues as written; N and C are the ends. Square brackets hold non-standard residues; d marks the D form. Peptide text beside a SMILES is read from it. * marks the point of attachment. Tridecanoyl(12-Me) = CC(C)CCCCCCCCCCC(=O)*; X1 = NC(=O)CC(O)C(N[*:1])C(=O)[*:2]; NMeF = CN[CH](Cc1ccccc1)C(=O)O; NMeN = CN[CH](CC(N)=O)C(=O)O; X2 = CCC(C)CCCCCCCCCCC(=O)*

Columns and labels:
Pyricularia oryzae = type: in vivo; settings: 1 d preventive, 400 L/ha
Rhizoctonia solani = test: Treatment of sheath blight on rice (Table 11); settings: 1 d preventive, 400 L/ha
Oculimacula yallundae = test: Treatment of eyespot on wheat (Table 15); type: in vivo; settings: 1 d preventive, 200 L/ha, 450 g/ha
Fusarium culmorum = test: Seed treatment, soilborne Fusarium culmorum in wheat under semi-field conditions (Example 4.1B); type: in vivo; settings: Celest FS025, 5 g ai per 100 kg seeds; plant emergence vs infected control
[1] = Solubility in water or DMSO
Aphanomyces cochlioides = test: Seed treatment, soilborne Aphanomyces cochlioides in sugar beet in the greenhouse (Example 4.3); type: in vivo, Aphanomyces cochlioides strain K-9164; settings: Tachigaren WS070; damping off vs infected control
Zymoseptoria tritici [2] = test: Preventive and curative treatment of Zymoseptoria tritici on wheat (Table 8); type: in vivo; settings: 200 L/ha, 17DAI
Puccinia recondita [3] = test: Preventive and curative treatment of Puccinia recondita on wheat (Table 8); type: in vivo; settings: 200 L/ha
Puccinia striiformis = test: Treatment of wheat infected with yellow rust Puccinia striiformis (Table 9); type: in vivo; settings: 200 L/ha
[4] = test system: Blumeria graminis f.sp. tritici; test: Treatment of powdery mildew on wheat (Table 12); type: in vivo; settings: 1 d preventive, 200 L/ha, 27 g/ha, 7DAI
Alternaria solani = test: Treatment of early blight on tomato (Table 13); type: in vivo; settings: 1 d preventive, 400 L/ha, 4DAI
[5] = test system: Colletotrichum lagenarium; test: Treatment of anthracnose on cucumber (Table 13); type: in vivo; settings: 1 d preventive, 400 L/ha, 5DAI
Mycosphaerella arachidis = test: Treatment of early leaf spots on groundnut (Table 13); type: in vivo; settings: 1 d preventive, 400 L/ha, 11DAI
Ramularia collo-cygni = test: Treatment of ramularia leaf spot on barley (Table 14); type: in vivo; settings: 1 d preventive, 200 L/ha, 20DAI
Parastagonospora nodorum = test: Treatment of glume blotch on wheat (Table 14); type: in vivo; settings: 1 d preventive, 200 L/ha, 7DAI
Rhynchosporium secalis = test: Treatment of scald on barley (Table 14); type: in vivo; settings: 1 d preventive, 200 L/ha, 15DAI
Zymoseptoria tritici [6] = test: Treatment of Zymoseptoria tritici on wheat beyond the treated area (Table 16); type: in vivo; settings: 188 ppm, 17DAI
Puccinia recondita [7] = test: Treatment of Puccinia recondita on wheat beyond the treated area (Table 16); type: in vivo; settings: 188 ppm, 11DAI
[8] = dmso, organic solvent or mixture

For `CO/C=C(/C(=O)OC)c1ccccc1Oc1cc(Oc2ccccc2C#N)ncn1` [Azoxystrobin], the “disease symptom reduction (%) vs. Untreated” value (Pyricularia oryzae; 3 g/ha) was 92%, the “disease symptom reduction (%) vs. Untreated” value (Pyricularia oryzae; 9 g/ha) was 85% and the “disease symptom reduction (%) vs. Untreated” value (Pyricularia oryzae; 28 g/ha) was 96%. For the same compound, the “disease symptom reduction (%) vs. Untreated” value (Pyricularia oryzae; 83 g/ha) was 92%, the “disease symptom reduction (%) vs. Untreated” value (Rhizoctonia solani; 3 g/ha) was 62% and the “disease symptom reduction (%) vs. Untreated” value (Rhizoctonia solani; 9 g/ha) was 86%. For the same compound, the “disease symptom reduction (%) vs. Untreated” value (Rhizoctonia solani; 28 g/ha) was 81% and the “disease symptom reduction (%) vs. Untreated” value (Rhizoctonia solani; 83 g/ha) was 86%.

With `Cc1cc(C2CC2)nc(Nc2ccccc2)n1` [Cyprodinil] the “disease symptom reduction (%) vs. Untreated” value (Oculimacula yallundae) was 56%.

For `N#Cc1c[nH]cc1-c1cccc2c1OC(F)(F)O2` [Fludioxonil], the “activity (%)” value (Fusarium culmorum) was 93%.

With `CC(C)CCCCCCCCCCC(=O)NC1C(=O)NC(CC(=O)O)C(=O)NC(C(O)CC(N)=O)C(=O)NC(CO)C(=O)N(C)C(CC(N)=O)C(=O)N(C)C(Cc2ccccc2)C(=O)NC(CCC(N)=O)C(=O)NC(CCC(=O)O)C(=O)OC1C` (stereo not drawn) [Formula II (a) Lipopeptide 1204] ({Tridecanoyl(12-Me)}-TD[X1]S[NMeN][NMeF]QE; ester 1-C; configuration not given here) the solubility [1, 8] was over 10 mg/mL and the solubility ([1]; water, pH 2.08, water) was 0.0214 mg/mL.

`CCC(C)CCCCCCCCCCC(=O)NC1C(=O)NC(CC(=O)O)C(=O)NC(C(O)CC(N)=O)C(=O)NC(CO)C(=O)N(C)C(CC(N)=O)C(=O)N(C)C(Cc2ccccc2)C(=O)NC(CCC(N)=O)C(=O)NC(CCC(=O)O)C(=O)OC1C` (stereo not drawn) [Formula II (b) Lipopeptide 1218] (X2-TD[X1]S[NMeN][NMeF]QE; ester 1-C; configuration not given here) showed a solubility [1, 8] of over 10 mg/mL.

In the case of `Cc1cc(O)no1` [Hymexazol], the “activity (%)” value (Aphanomyces cochlioides) is reported as 74%.

In the case of `CCCC1COC(Cn2cncn2)(c2ccc(Cl)cc2Cl)O1` (stereo not drawn) [Propiconazole], the “disease symptom reduction (%) vs. Untreated” value (Pyricularia oryzae; 5 g/ha) is reported as 17%, the “disease symptom reduction (%) vs. Untreated” value (Pyricularia oryzae; 14 g/ha) is reported as 38% and the “disease symptom reduction (%) vs. Untreated” value (Pyricularia oryzae; 42 g/ha) is reported as 79%. The “disease symptom reduction (%) vs. Untreated” value (Pyricularia oryzae; 125 g/ha) was 92%.

In the case of `Cn1cc(C(=O)Nc2cccc3c2C2CCC3C2=C(Cl)Cl)c(C(F)F)n1` (stereo not drawn) [SOLATENOL], the “disease symptom reduction (%) vs. Untreated” value (Zymoseptoria tritici [2]; 1 d preventive, 1 g/ha) is reported as 0%, the “disease symptom reduction (%) vs. Untreated” value (Zymoseptoria tritici [2]; 1 d preventive, 3 g/ha) is reported as 0% and the “disease symptom reduction (%) vs. Untreated” value (Zymoseptoria tritici [2]; 1 d preventive, 9 g/ha) is reported as 70%. For the same compound, the “disease symptom reduction (%) vs. Untreated” value (Zymoseptoria tritici [2]; 1 d preventive, 27 g/ha) was 97%, the “disease symptom reduction (%) vs. Untreated” value (Zymoseptoria tritici [2]; 3 d curative, 1 g/ha) was 4% and the “disease symptom reduction (%) vs. Untreated” value (Zymoseptoria tritici [2]; 3 d curative, 3 g/ha) was 0%. For the same compound, the “disease symptom reduction (%) vs. Untreated” value (Zymoseptoria tritici [2]; 3 d curative, 9 g/ha) was 61%, the “disease symptom reduction (%) vs. Untreated” value (Zymoseptoria tritici [2]; 3 d curative, 27 g/ha) was 82% and the “disease symptom reduction (%) vs. Untreated” value (Puccinia recondita [3]; 1 d preventive, 1 g/ha, 10DAI) was 49%. For the same compound, the “disease symptom reduction (%) vs. Untreated” value (Puccinia recondita [3]; 1 d preventive, 3 g/ha, 10DAI) was 88%, the “disease symptom reduction (%) vs. Untreated” value (Puccinia recondita [3]; 1 d preventive, 9 g/ha, 10DAI) was 96% and the “disease symptom reduction (%) vs. Untreated” value (Puccinia recondita [3]; 1 d preventive, 27 g/ha, 10DAI) was 99%. For the same compound, the “disease symptom reduction (%) vs. Untreated” value (Puccinia recondita [3]; 3 d curative, 1 g/ha, 11DAI) was 47%, the “disease symptom reduction (%) vs. Untreated” value (Puccinia recondita [3]; 3 d curative, 3 g/ha, 11DAI) was 58% and the “disease symptom reduction (%) vs. Untreated” value (Puccinia recondita [3]; 3 d curative, 9 g/ha, 11DAI) was 84%. The “disease symptom reduction (%) vs. Untreated” value (Puccinia recondita [3]; 3 d curative, 27 g/ha, 11DAI) was 92%, the “disease symptom reduction (%) vs. Untreated” value (Puccinia striiformis; 1 d preventive, 0.9 g/ha, 22DAI) was 0% and the “disease symptom reduction (%) vs. Untreated” value (Puccinia striiformis; 1 d preventive, 2.8 g/ha, 22DAI) was 76%. The “disease symptom reduction (%) vs. Untreated” value (Puccinia striiformis; 1 d preventive, 8 g/ha, 22DAI) was 90%, the “disease symptom reduction (%) vs. Untreated” value (Puccinia striiformis; 1 d preventive, 25 g/ha, 22DAI) was 100% and the “disease symptom reduction (%) vs. Untreated” value (Puccinia striiformis; 1 d preventive, 75 g/ha, 22DAI) was 100%. The “disease symptom reduction (%) vs. Untreated” value (Puccinia striiformis; 4 d curative, 0.9 g/ha, 21DAI) was 84%, the “disease symptom reduction (%) vs. Untreated” value (Puccinia striiformis; 4 d curative, 2.8 g/ha, 21DAI) was 93% and the “disease symptom reduction (%) vs. Untreated” value (Puccinia striiformis; 4 d curative, 8 g/ha, 21DAI) was 95%. The “disease symptom reduction (%) vs. Untreated” value (Puccinia striiformis; 4 d curative, 25 g/ha, 21DAI) was 99%, the “disease symptom reduction (%) vs. Untreated” value (Puccinia striiformis; 4 d curative, 75 g/ha, 21DAI) was 100% and the “disease symptom reduction (%) vs. Untreated” value [4] was 54%. The “disease symptom reduction (%) vs. Untreated” value (Alternaria solani; 1 g/ha) was 40%, the “disease symptom reduction (%) vs. Untreated” value (Alternaria solani; 2 g/ha) was 53% and the “disease symptom reduction (%) vs. Untreated” value (Alternaria solani; 6 g/ha) was 80%. For the same compound, the “disease symptom reduction (%) vs. Untreated” value (Alternaria solani; 20 g/ha) was 90%, the “disease symptom reduction (%) vs. Untreated” value (Alternaria solani; 60 g/ha) was 100% and the “disease symptom reduction (%) vs. Untreated” value ([5]; 1 g/ha) was 53%. The “disease symptom reduction (%) vs. Untreated” value ([5]; 2 g/ha) was 67%, the “disease symptom reduction (%) vs. Untreated” value ([5]; 6 g/ha) was 60% and the “disease symptom reduction (%) vs. Untreated” value ([5]; 20 g/ha) was 90%. For the same compound, the “disease symptom reduction (%) vs. Untreated” value ([5]; 60 g/ha) was 100%, the “disease symptom reduction (%) vs. Untreated” value (Mycosphaerella arachidis; 1 g/ha) was 56% and the “disease symptom reduction (%) vs. Untreated” value (Mycosphaerella arachidis; 2 g/ha) was 67%. The “disease symptom reduction (%) vs. Untreated” value (Mycosphaerella arachidis; 6 g/ha) was 89%, the “disease symptom reduction (%) vs. Untreated” value (Mycosphaerella arachidis; 20 g/ha) was 100% and the “disease symptom reduction (%) vs. Untreated” value (Mycosphaerella arachidis; 60 g/ha) was 98%. The “disease symptom reduction (%) vs. Untreated” value (Ramularia collo-cygni; 4 g/ha) was 6%, the “disease symptom reduction (%) vs. Untreated” value (Ramularia collo-cygni; 12 g/ha) was 32% and the “disease symptom reduction (%) vs. Untreated” value (Ramularia collo-cygni; 40 g/ha) was 80%. The “disease symptom reduction (%) vs. Untreated” value (Ramularia collo-cygni; 120 g/ha) was 97%, the “disease symptom reduction (%) vs. Untreated” value (Parastagonospora nodorum; 4 g/ha) was 16% and the “disease symptom reduction (%) vs. Untreated” value (Parastagonospora nodorum; 12 g/ha) was 44%. The “disease symptom reduction (%) vs. Untreated” value (Parastagonospora nodorum; 40 g/ha) was 81%, the “disease symptom reduction (%) vs. Untreated” value (Parastagonospora nodorum; 120 g/ha) was 85% and the “disease symptom reduction (%) vs. Untreated” value (Rhynchosporium secalis; 4 g/ha) was 31%. For the same compound, the “disease symptom reduction (%) vs. Untreated” value (Rhynchosporium secalis; 12 g/ha) was 60%, the “disease symptom reduction (%) vs. Untreated” value (Rhynchosporium secalis; 40 g/ha) was 94% and the “disease symptom reduction (%) vs. Untreated” value (Rhynchosporium secalis; 120 g/ha) was 100%. The “disease cover on leaf (%)” value (Zymoseptoria tritici [6]; leaf 1, not treated) was 100%, the “disease symptom reduction (%) vs. Untreated” value (Zymoseptoria tritici [6]; leaf 1, not treated) was 0% and the “disease cover on leaf (%)” value (Zymoseptoria tritici [6]; leaf 2 - base, not treated) was 89%. For the same compound, the “disease symptom reduction (%) vs. Untreated” value (Zymoseptoria tritici [6]; leaf 2 - base, not treated) was 8%, the “disease cover on leaf (%)” value (Zymoseptoria tritici [6]; leaf 2 - middle, treated) was 0% and the “disease symptom reduction (%) vs. Untreated” value (Zymoseptoria tritici [6]; leaf 2 - middle, treated) was 100%. For the same compound, the “disease cover on leaf (%)” value (Zymoseptoria tritici [6]; leaf 2 - tip, not treated) was 0%, the “disease symptom reduction (%) vs. Untreated” value (Zymoseptoria tritici [6]; leaf 2 - tip, not treated) was 100% and the “disease cover on leaf (%)” value (Zymoseptoria tritici [6]; leaf 3, not treated) was 42%. The “disease symptom reduction (%) vs. Untreated” value (Zymoseptoria tritici [6]; leaf 3, not treated) was 15%, the “disease cover on leaf (%)” value (Puccinia recondita [7]; leaf 1, not treated) was 80% and the “disease symptom reduction (%) vs. Untreated” value (Puccinia recondita [7]; leaf 1, not treated) was 11%. The “disease cover on leaf (%)” value (Puccinia recondita [7]; leaf 2 - base, not treated) was 81%, the “disease symptom reduction (%) vs. Untreated” value (Puccinia recondita [7]; leaf 2 - base, not treated) was 0% and the “disease cover on leaf (%)” value (Puccinia recondita [7]; leaf 2 - middle, treated) was 0%. For the same compound, the “disease symptom reduction (%) vs. Untreated” value (Puccinia recondita [7]; leaf 2 - middle, treated) was 100%, the “disease cover on leaf (%)” value (Puccinia recondita [7]; leaf 2 - tip, not treated) was 2% and the “disease symptom reduction (%) vs. Untreated” value (Puccinia recondita [7]; leaf 2 - tip, not treated) was 98%. For the same compound, the “disease cover on leaf (%)” value (Puccinia recondita [7]; leaf 3, not treated) was 31% and the “disease symptom reduction (%) vs. Untreated” value (Puccinia recondita [7]; leaf 3, not treated) was 16%.

In the case of `CC(=O)NC1C(OCC(OC2OC(CO)C(O)C(O)C2O)C2OC(OC3C(O)C(CO)OC(OC4(CO)OC(C(O)CO)C(O)C4OC4OC(CO)C(O)C(O)C4O)C3O)C(O)C(O)C2OC2OC(C(O)CO)C(O)C(O)C2OC2OCC(OC(N)=O)C(O)C2O)OC(CO)C(O)C1O` (stereo not drawn) [compound I], the solubility [1, 8] is reported as over 9.77 mg/mL.
